SMILES strings stand for the structures. ≈ marks a conversion by molar mass, not a printed value. Bounds are passed on as bounds.

The experiment concerns Mycobacterium tuberculosis. As to the kind of experiment: Antimycobacterial activity against quinolone-resistant multidrug-resistant Mycobacterium tuberculosis after 21 days by agar dilution method. Conditions: 504 h. Type of experiment: functional.
Usually MIC50 stands for an inhibitory concentration at the 50% level, which refers to growth in some studies and to a panel of isolates in others. A high value points to lower susceptibility. For orientation: MIC90 means the lowest concentration that inhibits either 90% of growth or 90% of the strains tested, depending on the study. In turn, `COc1c(N2C[C@@H]3CCCN[C@@H]3C2)c(F)cc2c(=O)c(C(=O)O)cn(C3CC3)c12` [MOXIFLOXACIN] yielded an MIC50 of 2 µg/mL (≈ 4.98 µM) and an MIC90 of 4 µg/mL (≈ 9.96 µM).

On to `COc1c(N2CCNC(C)C2)c(F)cc2c(=O)c(C(=O)O)cn(C3CC3)c12` (stereo unspecified) [GATIFLOXACIN], for which the MIC50 turned out to be 1 µg/mL (≈ 2.66 µM) and the MIC90 turned out to be 2 µg/mL (≈ 5.33 µM).

The compound `CO[C@H]1/C=C/O[C@@]2(C)Oc3c(C)c(O)c4c(O)c(c(/C=N/N5CCN(C)CC5)c(O)c4c3C2=O)NC(=O)/C(C)=C\C=C\[C@H](C)[C@H](O)[C@@H](C)[C@@H](O)[C@@H](C)[C@H](OC(C)=O)[C@@H]1C` [RIFAMPIN] returned an MIC50 of 128 µg/mL (≈ 156 µM) and an MIC90 above 128 µg/mL.

`C[C@H]1COc2c(N3CCN(C)CC3)c(F)cc3c(=O)c(C(=O)O)cn1c23.C[C@H]1COc2c(N3CCN(C)CC3)c(F)cc3c(=O)c(C(=O)O)cn1c23.O` [LEVOFLOXACIN] came in with an MIC50 of 8 µg/mL and an MIC90 of 16 µg/mL.

By MIC is commonly meant the lowest concentration found to suppress growth. Consider `COc1c(N2CC3(CC3)[C@](C)(N)C2)c(F)cc2c(=O)c(C(=O)O)cn([C@@H]3C[C@@H]3F)c12`, for which the MIC was 0.125 µg/mL (≈ 0.298 µM), the MIC50 is 0.125 µg/mL (≈ 0.298 µM) and the MIC90 turned out to be 0.5 µg/mL (≈ 1.19 µM).

(Values after ChEMBL document CHEMBL1255490, “In vitro activities of DC-159a, a novel fluoroquinolone, against Mycobacterium species” (Antimicrob Agents Chemother, 2010).)
